These results are taken from patent US20260174784A1, “Molecular Signatures that Predict Risk for Development of Hepatic Encephalopathy” (The Regents of the University of California, priority 2022, published 2026).

Assay [1] has as its target T1, farnesoid X receptor (FXR) (Homo sapiens, UniProt Q96RI1).
T1 sequence (Q96RI1 1-486): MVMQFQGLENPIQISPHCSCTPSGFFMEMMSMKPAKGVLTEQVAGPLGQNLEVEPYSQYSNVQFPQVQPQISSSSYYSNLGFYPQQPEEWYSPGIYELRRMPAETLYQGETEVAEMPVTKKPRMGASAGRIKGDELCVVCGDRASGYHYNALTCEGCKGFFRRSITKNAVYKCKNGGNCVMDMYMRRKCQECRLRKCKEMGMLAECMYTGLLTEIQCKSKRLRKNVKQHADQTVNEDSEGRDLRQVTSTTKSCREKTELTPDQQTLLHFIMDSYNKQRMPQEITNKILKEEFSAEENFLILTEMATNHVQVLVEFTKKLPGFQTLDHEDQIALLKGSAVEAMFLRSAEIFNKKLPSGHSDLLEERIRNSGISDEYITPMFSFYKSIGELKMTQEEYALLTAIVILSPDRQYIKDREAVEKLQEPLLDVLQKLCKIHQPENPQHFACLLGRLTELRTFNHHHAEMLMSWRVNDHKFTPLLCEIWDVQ
To be noted: ligand-mediated nuclear receptor; literature ref 48; cited from earlier work.

For assay [2], the system named is neuronal oxidative damage induced by bilirubin. To be noted: supplementation with GUDCA; previous studies in animal models; cited from earlier work.
In a further assay the test system is hepatic encephalopathy. As to the kind of experiment: HE treatment of readmitted TIPS participant 11_a (case course). Format: in vivo, human. To be noted: for response to HE treatment: first readmission 9 days post-TIPS, lactulose and rifaximin given together. From the text:
After the data were collected, the hospital courses of the two participants who were readmitted during the study period were examined. Participant 11_a (FIG. 6C) was a person with a history of cryptogenic cirrhosis with banded esophageal varices but with no prior history of HE. They underwent TIPS procedure due to progressively worsening ascites refractory to diuretic therapy and need for intermittent paracentesis. They were readmitted to the medical intensive care unit 9 days post-TIPS with obtundation requiring intubation for airway protection. Blood was drawn on the day of admission before initiation of hepatic encephalopathy treatment (pre-HET) (FIG. 6C). […] Blood was collected for analysis on the day after treatment initiation (post-HET) (FIG. 6C). They were discharged 9 days later. However, they were readmitted within 72 hours for altered mental status. […] Their encephalopathy resolved after continuous polyethylene glycol infusion via nasojejunal tube, but was again admitted 352 days post-TIPS for HE in the setting of urosepsis.

`C[C@H](CCC(=O)NCC(=O)O)[C@H]1CC[C@H]2[C@@H]3[C@@H](O)C[C@@H]4C[C@H](O)CC[C@]4(C)[C@H]3CC[C@]12C` [GUDCA, glycoursodeoxycholic acid]: the “effect on farnesoid X receptor (FXR)” value in assay [1] is listed as “directly inhibited”. In addition, the “neuronal oxidative damage induced by bilirubin” value in assay [2] is reported as “can be inhibited”.

With `OC[C@H]1O[C@@H](O[C@@H]2[C@@H](CO)OC(O)(CO)[C@H]2O)[C@H](O)[C@@H](O)[C@H]1O` (mixture of isomers) [lactulose], the “response to HE treatment” value in the assay on hepatic encephalopathy was “responded well”. The same measure, in the same setting: to `CO[C@H]1/C=C/O[C@@]2(C)Oc3c(C)c(O)c4c(O)c(c5c(nc6cc(C)ccn65)c4c3C2=O)NC(=O)/C(C)=C\C=C\[C@H](C)[C@H](O)[C@@H](C)[C@@H](O)[C@@H](C)[C@H](OC(C)=O)[C@@H]1C` [rifaximin] belongs “responded well”. polyethylene glycol: in the assay on hepatic encephalopathy (second readmission, continuous infusion via nasojejunal tube), the encephalopathy outcome is listed as “resolved”.
